Assays:
Jurkat cells [1] = assay: Hoechst 33258 entry by flow cytometry as measure of cell death / pore formation; assay type: cell-based
Protocol: (§1) Jurkat cells were incubated with 0.1 ug/mL or 1 ug/mL fimaporfin (TPCS2a, tetraphenyl chlorin disulfonate) for 10 minutes in complete RPMI 1640 medium. Following irradiation, the cells were incubated for 48 hours at 37° C. and 5% CO2, after which several analyses of cell health were performed.
(§2) Blue light irradiation/illumination was performed using LumiSource according to the manufacturer's protocol (PCI Biotech)
Entry of Hoechst 33258 (Thermo Fisher Scientific) into cells was performed as a measure of cell death. When Hoechst 33258 enters cells, it binds to double-stranded DNA generating a strong fluorescent signal. Entry of the stain into the cells requires the presence of pores in the plasma membrane and is a late-stage measure of cell health, i.e. cell death. Hoechst 33258 staining and flow cytometry was performed according to the manufacturer's protocol (Thermo Fisher Scientific).

HEK293T cells [2] = assay: Release of AAV2 viral vectors from producer cells (ddPCR of DNase-resistant vg in supernatant); assay type: cell-based; settings: adherent HEK293T, TPCS2a 5 μg/mL 10 min, blue light 5 minutes, supernatant 2 hours later
Protocol: 75-80% confluent HEK293T cells were triple transfected with Adeno-associated virus serotype 2 (AAV)-encoding plasmids (pHelper, AAV2 RepCap, and pscAAV-GFP plasmids) using polyethylenimine (PEI) in 12 well plates, resulting in AAV2 production. For each transfection, plasmids and PEI were added to complete DMEM to a total volume of 640 μL, followed by vortexing for 10 seconds and 15 minutes incubation at room temperature. Medium was removed from the HEK293T cells in 12 well plates, and replaced by the DMEM-plasmid-PEI mixture. Cells were incubated for three days at 37° C. and 5% CO2. Three days after transfection, cells were subjected to treatments (as described below) for 10 minutes in complete DMEM.
Treatments were: • a) Untransfected cells, no further treatment. • b) Transfected cells. Received photosensitiser solvent but no photosensitiser (to control for solvent effect on cell lysis). • c) Transfected cells. Incubated with 5 μg/mL TPCS2a (Fimaporfin) for 10 minutes. […]
Supernatants were harvested 2 hours later and cell debris (if any) was eliminated by centrifugation. DNase-resistant viral genome (vg) from all samples was quantified by digital droplet PCR amplification (Bio-Rad QX600) of DNase-resistant (i.e. viral capsid-encapsulated) DNA using primers targeting inverted terminal repeats. Viral vector yield was expressed as “vg/mL” (AAV vector genomes per millilitre).

HEK293T suspension cells = assay: Photochemical lysis of suspension cells studied by microscopy; assay type: cell-based; settings: 5 μg/mL 10 min + blue light 5 minutes, 2 hours after
Protocol: HEK293T suspension cells were treated with 5 μg/mL TPCS2a (fimaporfin) or fimaporfin solvent without photosensitiser (“Neg. Ctrl”) in complete DMEM for 10 minutes, followed by blue light illumination for 5 minutes (as described in Example 6). Hoechst 33258 was added to samples 2 minutes prior to imaging. Hoechst 33258 DNA stain is not readily cell penetrable, and therefore stains free DNA or DNA in cells with plasma membrane pores.
Cells were washed in PBS/1% FBS prior to imaging to remove unbound fimaporfin. Cells were imaged by light (Nomarski) microscopy and fimaporfin and Hoechst fluorescence by fluorescence microscopy after 10 minutes (i.e. prior to illumination) and 2 hours after illumination. Imaging was conducted as set out in Example 2.

Jurkat cells [3] = assay: Cell counting (Coulter Counter) as measure of cell growth; assay type: cell-based; settings: higher dose (1 ug/mL) vs 0.1 ug/mL at corresponding irradiation times, 48 hours after irradiation
Protocol: as §1, §2
Cell counting was performed as a measure of cell growth using a Coulter Counter by Beckman Coulter according to the manufacturer's protocol. Counting was performed 48 hours after irradiation.

HEK293T cells [4] = assay: Genomic DNA leakage into supernatant by ddPCR (albumin primers); assay type: cell-based, human; settings: TPCS2a 5 μg/mL 10 min, irradiation 5 minutes, 2 hours incubation
Protocol: (§3) 75-80% confluent HEK293T cells were incubated with 5 μg/mL TPCS2a or 0.5% Tween 20 in complete DMEM for 10 minutes followed by irradiation for 5 minutes (where indicated). Blue light irradiation/illumination was performed using LumiSource according to the manufacturer's protocol (PCI Biotech). A negative control of complete DMEM containing the TPCS2a solvent was used to control for solvent effects on cell lysis.
Following irradiation, the cells were incubated for 2 hours at 37° C. and 5% CO2, after which supernatants were collected. Cell debris (if any) was eliminated by centrifugation. Genomic DNA from all samples was quantified by ddPCR (Bio-Rad QX600) using primers targeting human albumin DNA.
Albumin DNA values were normalised to the negative control.

HEK293 cells [5] = assay: Cellular morphology after photochemical treatment (Nomarski/fluorescence microscopy); assay type: cell-based; settings: HEK293, 5 μg/mL 10 min
Protocol: HEK293 cells were incubated with 5 μg/mL TPCS2a complete DMEM for 10 minutes, followed by irradiation with blue light for 5 minutes. Blue light irradiation/illumination was performed using LumiSource according to the manufacturer's protocol (PCI Biotech). Cells were imaged by light (Nomarski) and fluorescence microscopy prior to illumination and 2 hours after illumination. Imaging was performed as described in Example 2.

HEK293 cells [6] = assay: LDH release assay (leakage of cytosolic material); assay type: cell-based; settings: 10 min, assessed after 2 hours
Protocol: HEK293 cells were incubated with either 0.5 μg/mL TPCS2a or 0.5% Tween 20 in serum-free DMEM. Alternatively, HEK293 cells were incubated with 50 μg/mL TPCS2a in 10% serum supplemented DMEM for 10 minutes. The cells were subsequently irradiated with blue light for 5 minutes or received no irradiation. Blue light irradiation/illumination was performed using LumiSource according to the manufacturer's protocol (PCI Biotech). The negative control (Neg. Ctrl) was either serum-free DMEM or 10% Fetal Bovine Serum (FBS) supplemented DMEM containing the TPCS2a solvent to control for the effect of solvents on LDH leakage. Background absorbance values of the LDH assay was assessed using DMEM with increasing concentrations of FBS at 1%, 5% and 10%.
LDH release was performed as a measure of cell lysis and release of cytosolic material using CyQUANT LDH Cytotoxicity Assay (Thermo Fisher Scientific) according to manufacturer's protocol. Cells were seeded in 48 well plates one day prior to treatments in 400 μL. The following day, treatments were given for 10 minutes at 37° C. 5% CO2, prior to 5 minutes illumination. Plates were subsequently incubated for 2 hours in an incubator (37° C. 5% CO2), then centrifuged for 5 minutes at 400×g, after which 50 μL supernatant from each sample was transferred to a 96 well plate for absorbance measurements according to kit instructions. 490 nm absorbance reflects LDH and 680 nm reflects absorbance background from the instrument. 490 nm absorbance minus 680 nm absorbance is directly proportional to the amount of LDH released into the medium.

Jurkat cells [7] = assay: MTS assay of metabolic activity/viability after TPCS2a and blue light; assay type: cell-based; settings: 48 hours incubation
Protocol: as §1, §2
MTS metabolism was performed as a measure of metabolic activity and performed according the manufacturer's protocol (Promega).

HEK293 cells [8] = assay: DNA leakage by Hoechst 33258 staining and microscopy, photochemical vs detergent lysis; assay type: cell-based; settings: HEK293, TPCS2a 5 μg/mL or Tween 20 0.5%, 10 min, irradiation 5 minutes, 2 hours after
Protocol: as §3, with “HEK293 cells” for “75-80% confluent HEK293T cells”, “5 minutes.” for “5 minutes (where indicated).”, “cell morphology and” for “cell”
Hoechst 33258 stain was added to samples 2 minutes prior to imaging. Hoechst 33258 staining was performed according to the manufacturer's protocol (Thermo Fisher Scientific). The cells were imaged by light (Nomarski) and fluorescence microscopy prior to irradiation and 2 hours after irradiation. Imaging was performed as described in Example 2. Changes to cellular morphology were analysed visually.

tetraphenyl chlorin disulfonate [TPCS2a]
cell death (Hoechst 33258 staining) (Jurkat cells [1]; TPCS2a 0.1 μg/ml 10 min, various irradiation times): some cell death but only at longer irradiation times
cell death (Hoechst 33258 staining) (Jurkat cells [1]; TPCS2a 1 μg/ml 10 min, after 2 minutes of irradiation): significant cell death
release of AAV2 viral vectors into supernatant (HEK293T cells [2]): releases non-enveloped viral vectors from producer cells
DNA retention (Hoechst 33258 microscopy) (HEK293T suspension cells): DNA is retained within the boundaries of the lysed cells
plasma membrane disruption (HEK293T suspension cells): opens up the plasma membrane
cell density (cell counting) (Jurkat cells [3]): reduced cell density
genomic DNA leakage into supernatant (ddPCR) (HEK293T cells [4]): does not cause the leakage of genomic DNA
cellular morphology (HEK293 cells [5]; absence of irradiation): do not exhibit changes to their cellular morphology
cellular morphology (HEK293 cells [5]; blue light 5 minutes, 2 hours after illumination): dramatically altered cellular morphology and had shifted to a lytic phenotype
LDH release (HEK293 cells [6]; HEK293, 10% FBS DMEM, TPCS2a 50 μg/mL, blue light 5 minutes): increased significantly
LDH release (HEK293 cells [6]; HEK293, 10% FBS DMEM, TPCS2a 50 μg/mL, no irradiation): comparable levels of LDH release to HEK293 cells treated with a negative control
LDH release (HEK293 cells [6]; HEK293, serum-free DMEM, TPCS2a 0.5 μg/mL or Tween 20 0.5%, blue light 5 minutes): increased significantly
LDH release (HEK293 cells [6]; HEK293, serum-free DMEM, TPCS2a 0.5 μg/mL or Tween 20 0.5%, no irradiation): comparable levels of LDH release to HEK293 cells treated with a negative control
cell viability (MTS absorbance) (Jurkat cells [7]; TPCS2a 1 μg/ml 10 min, 4-5 minutes irradiation): total loss of viability
cell viability (MTS absorbance) (Jurkat cells [7]; TPCS2a 0.1 or 1 ug/mL 10 min, blue light 2-5 minutes): reductions in viability
DNA leakage (Hoechst 33258 microscopy) (HEK293 cells [8]): DNA stays within the boundaries of the cell corpse
